Laboratory results published in PMC8653149, “Cyclic Analogs of Desferrioxamine E Siderophore for ^68Ga Nuclear Imaging: Coordination Chemistry and Biological Activity in Staphylococcus aureus” (Inorganic Chemistry, 2021).
“Also recorded” adds a separate entry of the source. Like-named read-outs stand apart in the source and are kept apart here. Marks after values point to notes of the source that are not given here.

How the values were obtained:
[1] = cited from earlier work
[2] = cited from earlier work; remark: listed apart in the source
[3] = Distribution coefficient (logD) of ^68Ga-labeled ligands between octanol and PBS
[4] = Water solubility of the ligands; format: physicochemical; conditions: H2O and H2O/DMSO 70/30 w/w mixture; concentrations used in assays
Protocol: Elaborated solution thermodynamic studies combining several methods were performed in order to investigate those properties. Five FOXE analogs were water soluble in at least 1 × 10^–3 M concentration. […] Major results of physicochemical analysis for analogs characterized by most desirable properties are summarized below.

[5] = set-up: method as in PMID 11673947; conditions: cited from earlier work
[6] = Ga(III) complex stability constants by Fe(III)–Ga(III) metal–metal competition, potentiometric and UV–vis pH-metric titrations; format: physicochemical
Excerpt: The next step was to determine the coordination specificity of investigated ligands toward Ga(III) ions. This is a somewhat challenging task because it requires indirect methods since the investigated complexes started to form in a very acidic environment, where potentiometric measurements were not accurate owing to the error of the glass electrode,[55],[56] and gallium is spectroscopically silent in UV–vis. To bypass this inconvenience, we implemented metal–metal competition assays. After addition of a significant molar excess of Ga(III), the LMCT band of Fe(III)-FOXE analog complexes was almost fully silenced as Ga(III) replaced Fe(III) in its complexes (Figure S5). By implementing those spectral changes, we were able to calculate the stability constants of the Ga(III)-FOXE analog species present below or around pH 2, [GaHL]^+ (Table S8). Stability constants for the [GaL] species, present above pH 2, could be determined by potentiometric titrations for Ga(III)-FOX 2-2, 2-3, 2-4, and 3-5, with logβ of [GaHL]^+ fixed in the calculations (Table S8). For Ga(III)-FOX 2-5, we could not observe any deprotonation step using this methodology. To confirm this behavior, UV–vis titration of the Ga(III)-FOX 2-5 analog complex was performed in the 200–300 nm spectral range (Figure S6) corresponding to the hydroxamate groups’ protonation state.[57]−[59] […] Above pH 4, there were no significant changes in maxima localization or absorbance intensity. Above pH 9, absorbance started to rise again, which indicated complex dissociation. […] Overall, the data indicated a decreased stability of [GaL] species when decreasing or increasing the ring size of Ga(III)-FOX 2-5, as reflected by pKNHOH (Table S8). Implementing this full coordination specification of Ga(III)-FOX complexes, we were able to calculate speciation plots which are presented in Figure 1 for the most efficient analogs FOX 2-4 and FOX 2-5, given here as examples, and in Figure S7 for others.
Proposed biomimetic analogs of cyclic siderophore FOXE bind Fe(III) ions starting from pH around 0, and the complexation is essentially complete far below or around pH of 2. Therefore, the stability constants of the first species formed in solution were determined from the spectrophotometric pH-dependent batch titrations carried out in the pH range of around 0.1–2 (Figure S3), by following the changes in the intense LMCT band of the metal complex. These values were further used as constant values in spectrophotometric or potentiometric titrations carried out in the pH range from 2 to 11 (Figure S3) to get the overall stability constants, logβFeL (Table S5). Since Ga(III)-FOX complexes present similar coordination properties, the first species start to form below pH 2 as well. However, in this case, we have used indirect methods to determine stability constants for Ga(III)-FOXE analogs and the Ga(III) complex with native FOXE, as Ga(III) complexes are spectroscopically silent in the UV–vis region. Metal–metal competition titrations were carried out at pH 1.6 for FOX 2-5 and FOX 2-4 and at pH 2 for the rest of the analogs and the native compound. The intense LMCT band of the Fe(III) complex was silenced after addition of a fixed volume of Ga(III) ions (Figure S5).
Potentiometric titrations were performed using an automatic titrator system Titrando 905 (Metrohm) equipped with a 800 Dosino dosing unit and a microburet with a volume of 2 mL. A combined glass electrode was calibrated each day for hydrogen ion concentration by 0.1 M HClO4 with CO2-free 0.1 M NaOH solutions. A stream of high purity grade argon, presaturated with water vapor, passed over the surface of the solution cell, filled with 3 mL of the studied solution. For each system, a minimum of four independent titrations was performed. […]

[7] = set-up: method as in Ref 3 (supplement); conditions: ref Ref 3 (supplement); cited from earlier work

CC(=O)N(O)CCCCCNC(=O)CCC(=O)N(O)CCCCCNC(=O)CCC(=O)N(O)CCCCCN [DFOB]
logβGa(III)L [1]: 27.56 ^g | pGa(III) [1]: 21.6 ^g | logβFe(III)L [2]: 31.10 ^g | pFe(III) [2]: 26.3 ^f

O=C1CCCCCCN(O)C(=O)CCNC(=O)CCCCCCN(O)C(=O)CCNC(=O)CCCCCCN(O)C(=O)CCN1 [FOX 2-6]
logD at 20 min [3]: -0.58 | solubility [4]: not water soluble in concentrations used during our assays; also recorded: not soluble in H2O nor in a H2O/DMSO 70/30 w/w mixture

O=C1CCC(=O)N(O)CCCCCNC(=O)CCC(=O)N(O)CCCCCNC(=O)CCC(=O)N(O)CCCCCN1 [FOXE, desferrioxamine E]
E1/2 vs NHE [5]: –477 ^d mv | logβFe(II) [5]: 12.1 ^d | logβ[GaL] ([6]; UV-Vis (metal–metal competition) titrations, [L] = 1·10^-4 M, M:L 1:1, T = 25°C, I = 0.1 M NaClO4): 29.79 (1) | pGa(III) ([6]; calculated, pH 7.4): 25.2 | logβGa(III)L ([6]; potentiometric [L] = 1 × 10^–3 M and UV–vis 5 × 10^–5 M, M:L 1:1, T = 25 °C, I = 0.1 M NaClO4): 29.79(1) | pFe(III) [2]: 27.3 ^c | protonation constant logβ, H2L + H+ ↔ H3L [7]: 27.94 | protonation constant logβ, HL + H+ ↔ H2L [7]: 19.31 | protonation constant logβ, L + H+ ↔ HL [7]: 9.89

transferrin: strong iron-binding ligand present in living organisms, literature comparator for pM
pGa(III) [1]: 20.3 ^i | pFe(III) [2]: 25.6 ^h
